Experimental data published in US6720322B2, “Butyne diol derivatives” (Actelion Pharamceuticals Ltd., priority 1999, dated 2004).

What was measured:
[1] = biological target: T1, human recombinant ETA receptors (Homo sapiens, UniProt P25101); experiment: Inhibition of [125I]ET-1 binding to membranes of CHO cells expressing human recombinant ETA receptors; also: 2.5% DMSO
T1 construct: expressed in transfected cells; host or cells: CHO cells (microsomal membranes)
T1 sequence (P25101 21-427): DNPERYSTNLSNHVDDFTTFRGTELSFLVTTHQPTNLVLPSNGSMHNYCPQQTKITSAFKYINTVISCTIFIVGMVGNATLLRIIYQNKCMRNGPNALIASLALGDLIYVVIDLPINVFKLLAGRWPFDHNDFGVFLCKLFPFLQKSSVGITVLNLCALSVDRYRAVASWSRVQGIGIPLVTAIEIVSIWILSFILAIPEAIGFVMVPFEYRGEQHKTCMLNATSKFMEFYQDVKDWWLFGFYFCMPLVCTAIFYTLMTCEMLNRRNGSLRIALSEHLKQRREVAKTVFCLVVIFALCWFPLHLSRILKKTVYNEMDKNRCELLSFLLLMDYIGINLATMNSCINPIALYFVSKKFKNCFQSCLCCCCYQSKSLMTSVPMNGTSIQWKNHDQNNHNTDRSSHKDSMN
Method: (§1) 1) Inhibition of Endothelin Binding to Membranes from CHO Cells Carrying Human ET Receptors:
(§2) For competition binding studies, membranes of CHO cells expressing human recombinant ETA or ETB receptors were used.
(§3) The assay was performed in 200 uL 50 mM Tris/HCl buffer, pH 7.4, including 25 mM MnCl2, 1 mM EDTA and 0.5% (w/v) BSA in polypropylene microtiter plates. […] After two h, the membranes were filtered on filterplates containing GF/C filters (Unifilterplates from Canberra Packard S.A. Zürich, Switzerland). To each well, 50 uL of scintillation cocktail was added (MicroScint 20, Canberra Packard S.A. Zürich, Switzerland) and the filter plates counted in a microplate counter (TopCount, Canberra Packard S.A. Zürich, Switzerland).
(§4) All the test compounds were dissolved, diluted and added in DMSO.

[2] = biological target: T2, rat tracheal rings (ETB receptors) (Rattus norvegicus, UniProt P21451); experiment: Inhibition of sarafotoxin S6c-induced contraction of isolated rat tracheal rings; assay type: cell-based; conditions: contraction induced by sarafotoxin S6c, 10 min incubation with the test compound; read-out: pA2 trachea (converted)
T2 construct: The thoracic aorta or trachea were excised, dissected and cut in 3-5 mm rings; from tissue; host or cells: tracheal rings of adult Wistar rats, epithelium removed
T2 sequence (P21451 27-442): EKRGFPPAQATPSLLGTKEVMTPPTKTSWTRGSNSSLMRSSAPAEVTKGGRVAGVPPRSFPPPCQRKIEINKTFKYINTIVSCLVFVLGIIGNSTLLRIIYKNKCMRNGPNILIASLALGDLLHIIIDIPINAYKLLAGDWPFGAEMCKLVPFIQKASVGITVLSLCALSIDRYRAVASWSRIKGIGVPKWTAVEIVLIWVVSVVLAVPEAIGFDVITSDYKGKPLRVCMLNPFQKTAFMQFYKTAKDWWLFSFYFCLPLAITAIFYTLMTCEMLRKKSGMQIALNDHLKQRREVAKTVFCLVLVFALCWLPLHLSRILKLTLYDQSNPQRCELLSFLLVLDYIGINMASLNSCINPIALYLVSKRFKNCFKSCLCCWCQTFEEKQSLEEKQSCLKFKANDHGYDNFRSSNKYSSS
Method: 2) Inhibition of Endothelin-induced Contractions on Isolated Rat Aortic Rings (ETA Receptors) and Rat Tracheal Rings (ETB Receptors)
The functional inhibitory potency of the endothelin antagonists was assessed by their inhibition of the contraction induced by endothelin-1 on rat aortic rings (ETA receptors) and of the contraction induced by sarafotoxin S6c on rat tracheal (ETB receptors). Adult Wistar rats were anesthetized and exsanguinated. The thoracic aorta or trachea were excised, dissected and cut in 3-5 mm rings. The endothelium/epithelium was removed by gentle rubbing of the intimal surface. […] The rings were connected to force transducers and isometric tension was recorded (EMKA Technologies SA, Paris, France). The rings were stretched to a resting tension of 3 g (aorta) or 2 g (trachea). […] The functional inhibitory potency of the test compound was assessed by calculating the concentration ratio, i.e. the shift to the right of the EC50 induced by different concentrations of test compound. EC50 is the concentration of endothelin needed to get a half-maximal contraction, pA2 is the negative logarithm of the antagonist concentration which induces a two-fold shift in the EC50 value.

[3] = biological target: T3, rat aortic rings (ETA receptors) (Rattus norvegicus, UniProt P26684); experiment: Inhibition of endothelin-1-induced contraction of isolated rat aortic rings
T3 sequence (P26684 21-426): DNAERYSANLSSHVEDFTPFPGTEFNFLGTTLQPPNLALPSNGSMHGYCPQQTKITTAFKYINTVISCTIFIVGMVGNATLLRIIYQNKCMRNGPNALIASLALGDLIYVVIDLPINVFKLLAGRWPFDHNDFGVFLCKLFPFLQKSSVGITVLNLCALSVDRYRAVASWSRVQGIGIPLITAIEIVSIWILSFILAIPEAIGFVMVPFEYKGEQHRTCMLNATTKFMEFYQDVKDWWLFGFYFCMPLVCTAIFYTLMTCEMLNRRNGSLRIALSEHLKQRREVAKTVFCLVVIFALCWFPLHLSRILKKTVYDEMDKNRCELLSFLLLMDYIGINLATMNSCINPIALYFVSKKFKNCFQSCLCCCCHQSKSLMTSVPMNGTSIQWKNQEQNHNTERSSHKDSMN

[4] = biological target: T4, human recombinant ETB receptors (Homo sapiens, UniProt P24530); experiment: Inhibition of [125I]ET-1 binding to membranes of CHO cells expressing human recombinant ETB receptors; also: 2.5% DMSO
T4 construct: expressed in transfected cells; host or cells: CHO cells (microsomal membranes)
T4 sequence (P24530 27-442): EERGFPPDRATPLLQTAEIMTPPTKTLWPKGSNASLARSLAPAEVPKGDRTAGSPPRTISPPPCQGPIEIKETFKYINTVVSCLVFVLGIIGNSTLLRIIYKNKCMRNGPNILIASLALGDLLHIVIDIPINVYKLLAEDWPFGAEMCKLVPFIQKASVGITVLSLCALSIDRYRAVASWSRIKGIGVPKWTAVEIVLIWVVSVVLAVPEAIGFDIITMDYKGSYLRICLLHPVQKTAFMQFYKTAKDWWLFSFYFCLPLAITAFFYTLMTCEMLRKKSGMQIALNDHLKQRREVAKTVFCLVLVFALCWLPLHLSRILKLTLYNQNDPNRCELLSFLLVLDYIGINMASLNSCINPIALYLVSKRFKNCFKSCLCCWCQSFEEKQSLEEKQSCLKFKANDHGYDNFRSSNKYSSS
Method: as §1, §2, §3, §4

Row | Compound | IC50 [1] [nM] | Kb [2] [nM] | Kb [3] [nM] | IC50 [4] [nM] | melting point [°C]
1 | COc1ccccc1Oc1c(NS(=O)(=O)c2ccc(C(C)(C)C)cc2)nc(-c2ccncc2)nc1OCC#CCOc1ncccn1 [Example 19, 4-tert.-butyl-N-[6-(4-(2-pyrimidinyloxy)-2-butynyloxy)-5-(o-methoxyphenoxy)-2-(4-pyridyl)-4-pyrimidinyl]-benzene sulfonamide] | 112 | 24 | > 10000 | 45 | 
2 | COc1cc(OC)nc(OCC#CCOc2nc(-c3ccncc3)nc(NS(=O)(=O)c3ccc(C(C)C)cn3)c2Oc2ccccc2OC)n1 [Example 18, 5-isopropyl-N-[6-(4-(4,6-dimethoxy-2-pyrimidinyloxy)-2-butynyloxy)-5-(o-methoxyphenoxy)-2-(4-pyridyl)-4-pyrimidinyl]-2-pyridine sulfonamide] | 79 |  |  | 36 | 
3 | COc1ccccc1Oc1c(NS(=O)(=O)c2ccc(C(C)C)cn2)nc(C)nc1OCC#CCOC(=O)Nc1ccccc1 [Example 70] | 94 |  |  | 375 | 
4 | COCC#CCOc1nc(N2CCOCC2)nc(NS(=O)(=O)c2ccc(C(C)C)cn2)c1Oc1ccccc1OC [Example 94, 5-isopropyl-N-[6-(4-methoxy-2-butynyloxy)-5-(o-methoxyphenoxy)-2-(N-morpholino)-4-pyrimidinyl]-2-pyridine sulfonamide] | 13 |  |  | 107 | 
5 | COc1ccccc1Oc1c(NS(=O)(=O)c2ccc(C(C)C)cn2)nc(-c2ccncc2)nc1OCC#CCOC(=O)Nc1cccc(C)c1 [Example 54, m-tolyl-carbamic acid 4-[6-(5-isopropyl-pyridine-2-sulfonylamino)-5-(2-methoxy-phenoxy)-2-pyridin-4-yl-pyrimidin-4-yloxy]-but-2-ynyl ester] |  |  |  |  | 163 to 165
6 | COc1cc(OC)nc(OCC#CCOc2nc(-c3ccncc3)nc(NS(=O)(=O)c3ccc(C(C)(C)C)cc3)c2Oc2ccccc2OC)n1 [Example 21, 4-tert.-butyl-N-[6-(4-(4,6-dimethoxy-2-pyrimidinyloxy)-2-butynyloxy)-5-(o-methoxyphenoxy)-2-(4-pyridyl)-4-pyrimidinyl]-benzene sulfonamide] | 230 |  |  | 44 | 
7 | Cc1ccc(-c2c(NS(=O)(=O)c3ccc(C(C)C)cn3)nc(-c3ccncc3)nc2OCC#CCO)cc1 [Example 11d, 5-isopropyl-N-[6-(4-hydroxy-2-butynyloxy)-5-(p-tolyl)-2-(4-pyridyl)-4-pyrimidinyl]-2-pyridine sulfonamide] | 49 | 93.3 | 89.1 | 97 | 
